Earlier results as cited in US20050250118A1 (priority 2003, published 2005).

What was measured:
[1] = test system: AD patients; conditions: galantamine therapy
[2] = test system: AD patients; conditions: presence of the ApoE4 polymorphism

| SMILES | most common side effects [1] | response to treatment with ApoE4 allele present [2] |
| --- | --- | --- |
| COc1ccc2c3c1O[C@H]1C[C@@H](O)C=C[C@@]31CCN(C)C2 [galantamine] | nausea, vomiting, diarrhea, dizziness and anorexia | – |
| Nc1c2c(nc3ccccc13)CCCC2 [tacrine] | – | reduced response to treatment |
